Measurements from the Kinase Knowledgebase extract (Sharma et al. 2016).
pIC50: −log10 of the molar value.

Columns and labels:
[1] = target: EGFR (human) (UniProt P00533); details: kb epidermoid nasopharynx
[2] = target: EGFR (UniProt P00533)
EGFR, sequence (P00533 whole entry, looked up): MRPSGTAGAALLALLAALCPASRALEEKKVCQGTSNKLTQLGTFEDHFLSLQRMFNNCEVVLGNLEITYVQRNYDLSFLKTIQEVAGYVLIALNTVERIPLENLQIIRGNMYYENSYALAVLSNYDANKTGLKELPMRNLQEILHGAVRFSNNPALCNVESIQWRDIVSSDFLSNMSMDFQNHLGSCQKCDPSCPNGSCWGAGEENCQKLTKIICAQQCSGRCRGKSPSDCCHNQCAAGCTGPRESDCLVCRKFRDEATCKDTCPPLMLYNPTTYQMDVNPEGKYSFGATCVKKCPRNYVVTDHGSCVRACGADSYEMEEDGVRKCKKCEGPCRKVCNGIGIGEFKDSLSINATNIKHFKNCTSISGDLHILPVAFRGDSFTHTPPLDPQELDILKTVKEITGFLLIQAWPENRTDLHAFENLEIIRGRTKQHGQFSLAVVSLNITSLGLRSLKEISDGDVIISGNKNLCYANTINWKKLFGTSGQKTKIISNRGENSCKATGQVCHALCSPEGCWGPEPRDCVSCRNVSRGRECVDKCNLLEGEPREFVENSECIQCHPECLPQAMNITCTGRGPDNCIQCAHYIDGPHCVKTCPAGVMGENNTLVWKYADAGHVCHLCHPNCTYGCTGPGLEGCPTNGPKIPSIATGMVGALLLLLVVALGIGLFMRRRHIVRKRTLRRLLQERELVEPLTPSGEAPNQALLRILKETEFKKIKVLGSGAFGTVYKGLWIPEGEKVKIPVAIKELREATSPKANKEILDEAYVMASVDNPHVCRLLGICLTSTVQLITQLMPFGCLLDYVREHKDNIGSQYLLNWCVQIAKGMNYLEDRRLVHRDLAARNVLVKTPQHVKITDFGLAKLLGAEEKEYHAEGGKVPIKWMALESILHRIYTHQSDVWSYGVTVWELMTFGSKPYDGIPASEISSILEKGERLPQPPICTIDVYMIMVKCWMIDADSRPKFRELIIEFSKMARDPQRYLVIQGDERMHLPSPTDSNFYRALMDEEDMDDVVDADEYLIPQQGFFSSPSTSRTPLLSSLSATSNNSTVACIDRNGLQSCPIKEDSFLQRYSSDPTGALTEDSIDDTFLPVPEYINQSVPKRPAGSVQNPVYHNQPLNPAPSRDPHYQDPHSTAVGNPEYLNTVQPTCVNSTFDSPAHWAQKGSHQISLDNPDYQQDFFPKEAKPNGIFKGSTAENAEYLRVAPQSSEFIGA

EGFR (human), sequence (P00533 whole entry, looked up): as above

pIC50 [1] | pIC50 [2] | Structure (SMILES)
7.43 |  | COc1cc2c(Nc3cccc(Cl)c3F)ncnc2cc1OC1CCN(C(=O)CO)CC1
6.40 | 7.39 | COc1cc2c(Nc3cccc(Cl)c3F)ncnc2cc1O[C@@H]1CCN(C(=O)C2CCC(=O)N2)C1 (stereo partly drawn)
6.92 |  | COCC(=O)N1CC[C@@H](Oc2cc3ncnc(Nc4cccc(Cl)c4F)c3cc2OC)C1
6.96 |  | COc1cc2c(Nc3cccc(Cl)c3F)ncnc2cc1OC1CCN(C(=O)CCO)CC1
7.26 |  | COCC(=O)N1CCC(Oc2cc3ncnc(Nc4cccc(Cl)c4F)c3cc2OC)CC1

Continued, molecule first:

Structure (SMILES) | pIC50 [1] | pIC50 [2]
COc1cc2ncnc(Nc3cccc(Cl)c3F)c2cc1CN1CSC[C@H]1C(N)=O | 7.30 | 
COCCOCC(=O)N1CCC(Oc2cc3ncnc(Nc4cccc(Cl)c4F)c3cc2OC)CC1 | 6.95 | 
COc1cc2ncnc(Nc3ccc(F)c(Cl)c3)c2cc1CN1CCC[C@@H]1C(=O)NCC#N | 6.84 | 
COc1cc2c(Nc3cccc(Cl)c3F)ncnc2cc1OC1CN(C(=O)[C@@H](C)O)C1 | 7.32 | 
COCCN1CCN(Cc2cc3c(Nc4cccc(Cl)c4F)ncnc3cc2OC)C(C(N)=O)C1 (stereo not drawn) | 6.80 | 
COc1cc2c(Nc3cccc(Cl)c3F)ncnc2cc1OC1CN(C(=O)[C@H](C)O)C1 | 7.15 | 
COCCC(=O)N1CCC(Oc2cc3ncnc(Nc4cccc(Cl)c4F)c3cc2OC)CC1 | 7.08 | 
